Source: patent US7541359B2, “N-heteroarylpiperazinyl ureas as modulators of fatty acid amide hydrolase” (Janssen Pharmaceutica N.V., priority 2005, dated 2009)

Legend:
Format in all cases: biochemical
Rat FAAH = biological target: T1, Rat FAAH (Rattus norvegicus, UniProt P97612); assay: Assay Method 3: FAAH assay, homogenate of SK-N-MC cells transfected with rat FAAH; settings: rat FAAH transfected SK-N-MC cell homogenate; 3H-AEA tracer 80 nM; rt 1 h
T1 construct: expressed in transfected cells; host or cells: SK-N-MC cells, electroporated, G418-selected clones
T1 sequence (P97612 1-579): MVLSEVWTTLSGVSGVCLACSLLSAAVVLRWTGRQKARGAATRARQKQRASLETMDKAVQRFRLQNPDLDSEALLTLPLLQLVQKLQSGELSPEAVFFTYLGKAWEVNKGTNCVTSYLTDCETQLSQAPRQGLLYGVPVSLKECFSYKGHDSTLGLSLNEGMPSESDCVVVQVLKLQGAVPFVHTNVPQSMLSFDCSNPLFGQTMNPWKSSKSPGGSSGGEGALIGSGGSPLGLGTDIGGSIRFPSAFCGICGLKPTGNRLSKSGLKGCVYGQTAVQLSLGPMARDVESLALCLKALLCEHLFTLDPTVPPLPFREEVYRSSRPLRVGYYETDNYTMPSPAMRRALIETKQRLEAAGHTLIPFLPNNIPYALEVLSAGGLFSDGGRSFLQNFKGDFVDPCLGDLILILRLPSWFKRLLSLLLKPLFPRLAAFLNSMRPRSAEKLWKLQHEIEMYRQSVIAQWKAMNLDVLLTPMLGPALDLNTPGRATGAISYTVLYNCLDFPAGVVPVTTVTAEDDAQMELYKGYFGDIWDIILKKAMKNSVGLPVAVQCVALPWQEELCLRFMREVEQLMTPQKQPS
Description: Assay Method 3 A. Transfection of Cells with Rat FAAH
A 10-cm tissue culture dish with a confluent monolayer of SK-N-MC cells was split 2 days (d) prior to transfection. Using sterile technique, the media was removed and the cells were detached from the dish by the addition of trypsin. One fifth of the cells were then placed onto a new 10-cm dish. Cells were grown in a 37° C. incubator with 5% CO2 in Minimal Essential Media Eagle with 10% Fetal Bovine Serum. After 2 d, cells were approximately 80% confluent. These cells were removed from the dish with trypsin and pelleted in a clinical centrifuge. The pellet was re-suspended in 400 μL complete media and transferred to an electroporation cuvette with a 0.4 cm gap between the electrodes. Supercoiled rat FMH cDNA (1 μg) was added to the cells and mixed. The voltage for the electroporation was set at 0.25 kV, and the capacitance was set at 960 μF. After electroporation, the cells were diluted into complete media (10 mL) and plated onto four 10-cm dishes. Because of the variability in the efficiency of electroporation, four different concentrations of cells were plated. […] After 10 d, dishes were analyzed for surviving colonies of cells. Dishes with well-isolated colonies were used. Cells from individual colonies were isolated and tested.
The assay mixture consisted of 50 μL of the cell homogenate, 10 μL of the test compound, and 40 μL of anandamide [1-^3H-ethanolamine] (^3H-AEA, Perkin-Elmer, 10.3 Ci/mmol), which was added last, for a final tracer concentration of 80 nM. The reaction mixture was incubated at rt for 1 h. During the incubation, 96-well Multiscreen filter plates (catalog number MAFCNOB50: Millipore, Bedford, Mass., USA) were loaded with 25 μL of activated charcoal (Multiscreen column loader, catalog number MACL09625, Millipore) and washed once with 100 μL of MeOH. […] After the 1 h incubation, 60 μL of the reaction mixture were transferred to the charcoal plates, which were then assembled on top of the DYNEX plates using Centrifuge Alignment Frames (catalog number MACF09604, Millipore). The unbound labeled ethanolamine was centrifuged through to the bottom plate (5 min at 2000 rpm), which was preloaded with the scintillant, as described above. The plates were sealed and left at rt for 1 h before counting on a Hewlett Packard TopCount.

FAAH [1] = biological target: T2, FAAH (Homo sapiens, UniProt O00519); assay: Assay Method 2: FAAH assay, homogenate of SK-N-MC cells transfected with human FAAH; parameters: expressed in transfected cells; host or cells: SK-N-MC cells, electroporated, G418-selected clones; settings: human FAAH transfected SK-N-MC cell homogenate; 3H-AEA tracer 80 nM; rt 1 h
T2 sequence (O00519 1-579): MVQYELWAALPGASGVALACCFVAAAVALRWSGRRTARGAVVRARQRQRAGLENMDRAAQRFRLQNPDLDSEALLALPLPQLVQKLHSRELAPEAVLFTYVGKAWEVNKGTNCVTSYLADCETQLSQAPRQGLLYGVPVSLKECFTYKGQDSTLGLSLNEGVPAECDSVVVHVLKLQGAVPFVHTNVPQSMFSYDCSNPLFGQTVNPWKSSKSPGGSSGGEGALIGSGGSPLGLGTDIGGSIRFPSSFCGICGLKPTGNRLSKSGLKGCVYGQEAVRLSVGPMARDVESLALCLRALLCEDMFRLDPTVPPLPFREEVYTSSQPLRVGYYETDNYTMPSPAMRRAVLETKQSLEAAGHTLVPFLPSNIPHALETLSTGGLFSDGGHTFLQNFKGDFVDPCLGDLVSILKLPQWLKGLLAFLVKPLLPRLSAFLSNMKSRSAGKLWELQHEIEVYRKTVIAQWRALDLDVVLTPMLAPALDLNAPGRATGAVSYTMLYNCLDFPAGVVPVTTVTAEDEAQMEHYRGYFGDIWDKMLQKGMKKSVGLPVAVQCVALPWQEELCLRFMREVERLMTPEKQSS
Description: Assay Method 2 A. Transfection of Cells with Human FAAH
A 10-cm tissue culture dish with a confluent monolayer of SK-N-MC cells was split 2 days (d) prior to transfection. Using sterile technique, the media was removed and the cells were detached from the dish by the addition of trypsin. One fifth of the cells were then placed onto a new 10-cm dish. Cells were grown in a 37° C. incubator with 5% CO2 in Minimal Essential Media Eagle with 10% Fetal Bovine Serum. After 2 d, cells were approximately 80% confluent. These cells were removed from the dish with trypsin and pelleted in a clinical centrifuge. The pellet was re-suspended in 400 μL complete media and transferred to an electroporation cuvette with a 0.4 cm gap between the electrodes. Supercoiled human FMH cDNA (1 μg) was added to the cells and mixed. The voltage for the electroporation was set at 0.25 kV, and the capacitance was set at 960 μF. After electroporation, the cells were diluted into complete media (10 mL) and plated onto four 10-cm dishes. Because of the variability in the efficiency of electroporation, four different concentrations of cells were plated. The ratios used were 1:20, 1:10, and 1:5, with the remainder of the cells being added to the fourth dish. The cells were allowed to recover for 24 h before adding the selection media (complete media with 600 μg/mL G418). After 10 d, dishes were analyzed for surviving colonies of cells. Dishes with well-isolated colonies were used. Cells from individual colonies were isolated and tested.
The assay mixture consisted of 50 μL of the cell homogenate, 10 μL of the test compound, and 40 μL of anandamide [1-^3H-ethanolamine] (^3H-AEA, Perkin-Elmer, 10.3 Ci/mmol), which was added last, for a final tracer concentration of 80 nM. The reaction mixture was incubated at rt for 1 h. During the incubation, 96-well Multiscreen filter plates (catalog number MAFCNOB50; Millipore, Bedford, […]., USA) were loaded with 25 μL of activated charcoal (Multiscreen column loader, catalog number MACL09625, Millipore) and washed once with 100 μL of MeOH. Also during the incubation, 96-well DYNEX MicroLite plates (catalog number NL510410) were loaded with 100 μL of MicroScint40 (catalog number 6013641, Packard Bioscience, Meriden, Conn., USA). After the 1 h incubation, 60 μL of the reaction mixture were transferred to the charcoal plates, which were then assembled on top of the DYNEX plates using Centrifuge Alignment Frames (catalog number MACF09604, Millipore). The unbound labeled ethanolamine was centrifuged through to the bottom plate (5 min at 2000 rpm), which was preloaded with the scintillant, as described above. The plates were sealed and left at rt for 1 h before counting on a Hewlett Packard TopCount.

FAAH [2] = biological target: T2, FAAH; assay: Assay Method 1: FAAH assay, T84 cell homogenate, 3H-anandamide hydrolysis; parameters: T84 frozen pellets (contents of 1-4×15 cm culture dishes) were homogenized in 300 mL of FAAH assay buffer; endogenous in cells; host or cells: T84 cells (homogenate); settings: 3H-AEA tracer 200 nM, rt 1 h
Description: The assay mixture was prepared from 50 μL of the cell homogenate, 10 μL of the test compound, and 40 μL of anandamide [1-^3H-ethanolamine] (^3H-AEA; Perkin-Elmer, 10.3 Ci/mmol), which was added last, for a final tracer concentration of 200 nM. The reaction mixture was incubated at rt for 1 hour (h). During the incubation, 96-well Multiscreen filter plates (catalog number MAFCNOB50; Millipore, Bedford, Mass. USA) were loaded with 25 μL of activated charcoal (Multiscreen column loader, catalog number MACL09625, Millipore) and washed once with 100 μL of MeOH. […] After the 1 h incubation, 60 μL of the reaction mixture were transferred to the charcoal plates, which were then assembled on top of the DYNEX plates using Centrifuge Alignment Frames (catalog number MACF09604, Millipore). The unbound, labeled ethanolamine was centrifuged through to the bottom plate (5 min at 2000 rpm), which was preloaded with the scintillant, as described above. The plates were sealed and left at rt for 1 h before counting on a Hewlett Packard TopCount.

SMILES | IC50 (Rat FAAH) [nM] | IC50 (FAAH [1]) [nM] | IC50 (FAAH [2]) [nM]
O=C(Nc1ccccc1)N1CCN(c2nc(-c3ccccc3)ns2)CC1 [Example 1, 4-(3-Phenyl-[1,2,4]thiadiazol-5-yl)-piperazine-1-carboxylic acid phenylamide] | 46 | – | –
O=C(Nc1ccccc1)N1CCN(c2nc(N3CCCCC3)ns2)CC1 [Example 27, 4-(3-Piperidin-1-yl-[1,2,4]thiadiazol-5-yl)-piperazine-1-carboxylic acid phenylamide] | 1100 | 260 | –
O=C(Nc1ccccc1)N1CCN(c2nc(N3CCCC3)ns2)CC1 [Example 28, 4-(3-Pyrrolidin-1-yl-[1,2,4]thiadiazol-5-yl)-piperazine-1-carboxylic acid phenylamide] | 5000 | 3000 | –
CC1CCN(c2nsc(N3CCN(C(=O)Nc4ccccc4)CC3)n2)CC1 [Example 29, 4-[3-(4-Methyl-piperidin-1-yl)-[1,2,4]thiadiazol-5-yl]-piperazine-1-carboxylic acid phenylamide] | 5000 | > 10000 | –
O=C(Nc1ncccn1)N1CCN(c2nc(-c3ccccc3)ns2)CC1 [Example 31, 4-(3-Phenyl-[1,2,4]thiadiazol-5-yl)-piperazine-1-carboxylic acid pyrimidin-2-ylamide] | 30 | 160 | –
O=C(Nc1nccs1)N1CCN(c2nc(-c3ccccc3)ns2)CC1 [Example 32, 4-(3-Phenyl-[1,2,4]thiadiazol-5-yl)-piperazine-1-carboxylic acid thiazol-2-ylamide] | 77 | 450 | –
O=C(Nc1ccncc1)N1CCN(c2nc(-c3ccccc3)ns2)CC1 [Example 33, 4-(3-Phenyl-[1,2,4]thiadiazol-5-yl)-piperazine-1-carboxylic acid pyridin-4-ylamide] | 18 | – | 28
Cc1cccc(-c2nsc(N3CCN(C(=O)Nc4ccccc4)CC3)n2)c1 [Example 38, 4-(3-m-Tolyl-[1,2,4]thiadiazol-5-yl)-piperazine-1-carboxylic acid phenylamide] | 84 | 43 | –
O=C(Nc1ccccc1)N1CCN(c2nc(-c3cc(Cl)cc(Cl)c3)ns2)CC1 [Example 39, 4-[3-(3,5-Dichloro-phenyl)-[1,2,4]thiadiazol-5-yl]-piperazine-1-carboxylic acid phenylamide] | 57 | 60 | –
O=C(Nc1ccccc1)N1CCN(c2nc(-c3ccco3)ns2)CC1 [Example 40, 4-(3-Furan-2-yl-[1,2,4]thiadiazol-5-yl)-piperazine-1-carboxylic acid phenylamide] | 2000 | 540 | –
O=C(Nc1ccccc1)N1CCN(c2nc(-c3ccoc3)ns2)CC1 [Example 41, 4-(3-Furan-3-yl-[1,2,4]thiadiazol-5-yl)-piperazine-1-carboxylic acid phenylamide] | 590 | 350 | –
O=C(Nc1ccccc1)N1CCN(c2nc(-c3cccs3)ns2)CC1 [Example 42, 4-(3-Thiophen-2-yl-[1,2,4]thiadiazol-5-yl)-piperazine-1-carboxylic acid phenylamide] | 300 | 60 | –
O=C(Nc1ccccc1)N1CCN(c2nc(-c3ccsc3)ns2)CC1 [Example 43, 4-(3-Thiophen-3-yl-[1,2,4]thiadiazol-5-yl)-piperazine-1-carboxylic acid phenylamide] | 120 | 130 | –
O=C(Nc1ccccc1)N1CCN(c2nc(N3CCOCC3)ns2)CC1 [Example 44, 4-(3-Morpholin-4-yl-[1,2,4]thiadiazol-5-yl)-piperazine-1-carboxylic acid phenylamide] | > 10000 | > 10000 | –
